“And” between values parts separate entries of the source, which are not always exact repeats. Equal values may be shown once. Toxic doses and inconclusive results are not listed.
Test system: P388 leukemia ip, CD2F1 mice, survival T/C
Assay: NCI In Vivo Anticancer Drug Screen. Data for tumor model P388 Leukemia (intraperitoneal) in CD2F1 (CDF1) mice
Conditions: endpoint: median survival time, higher = longer survival
In short: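 Mice carrying the transplanted tumor received test compound or vehicle. Survival was recorded in each group, and the value is the treated-group measurement divided by that of the vehicle-treated control group.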

[1] = dose: 25.0 mg/kg/injection, schedule: Q01DX009 (ip), vehicle: saline
[2] = dose: 50.0 mg/kg/injection, schedule: Q01DX009 (ip), vehicle: saline
[3] = dose: 100.0 mg/kg/injection, schedule: Q01DX001 (ip), vehicle: saline with Tween-80
[4] = dose: 200.0 mg/kg/injection, schedule: Q01DX001 (ip), vehicle: saline with Tween-80
[5] = dose: 25.0 mg/kg/injection, schedule: Q01DX005 (ip), vehicle: saline with Tween-80
[6] = dose: 50.0 mg/kg/injection, schedule: Q01DX005 (ip), vehicle: saline with Tween-80
[7] = dose: 100.0 mg/kg/injection, schedule: Q01DX005 (ip), vehicle: saline with Tween-80
[8] = dose: 200.0 mg/kg/injection, schedule: Q01DX005 (ip), vehicle: saline with Tween-80
[9] = dose: 60.0 mg/kg/injection, schedule: Q01DX005 (ip), vehicle: saline with Tween-80
[10] = dose: 120.0 mg/kg/injection, schedule: Q01DX005 (ip), vehicle: saline with Tween-80
[11] = dose: 240.0 mg/kg/injection, schedule: Q01DX005 (ip), vehicle: saline with Tween-80

Nc1n[n+](-c2ccccc2)no1
T/C (dose: 1.56 mg/kg/injection, schedule: Q01DX009 (ip), vehicle: water): 110 % of control | T/C (dose: 1.56 mg/kg/injection, schedule: Q03HX015 (ip), vehicle: water): 117 % of control | T/C (dose: 3.12 mg/kg/injection, schedule: Q01DX005 (ip), vehicle: water): 104 % of control | T/C (dose: 3.12 mg/kg/injection, schedule: Q03HX015 (ip), vehicle: water): 119 % of control | T/C (dose: 3.13 mg/kg/injection, schedule: Q01DX009 (ip), vehicle: water): 104 % of control and 108 % of control and 117 % of control | T/C (dose: 3.13 mg/kg/injection, schedule: Q03HX015 (ip), vehicle: water): 115 % of control | T/C (dose: 6.25 mg/kg/injection, schedule: Q01DX009 (ip), vehicle: saline): 123 % of control | T/C (dose: 6.25 mg/kg/injection, schedule: Q01DX009 (ip), vehicle: water): 117 % of control and 118 % of control | T/C (dose: 6.25 mg/kg/injection, schedule: Q03HX003 (ip), vehicle: water): 112 % of control | T/C (dose: 12.5 mg/kg/injection, schedule: Q03HX003 (ip), vehicle: water): 117 % of control | T/C (dose: 25.0 mg/kg/injection, schedule: Q01DX001 (ip), vehicle: water): 104 % of control | T/C [1]: 178 % of control | T/C (dose: 25.0 mg/kg/injection, schedule: Q01DX009 (ip), vehicle: water): 169 % of control and 189 % of control and 195 % of control | T/C (dose: 25.0 mg/kg/injection, schedule: Q03HX003 (ip), vehicle: water): 117 % of control | T/C (dose: 25.0 mg/kg/injection, schedule: Q03HX015 (ip), vehicle: water): 161 % of control and 183 % of control | T/C (dose: 50.0 mg/kg/injection, schedule: Q01DX001 (ip), vehicle: water): 120 % of control | T/C [2]: 214 % of control | T/C (dose: 50.0 mg/kg/injection, schedule: Q03HX003 (ip), vehicle: water): 123 % of control | T/C (dose: 100.0 mg/kg/injection, schedule: Q01DX001 (ip), vehicle: water): 114 % of control

O=c1[nH]c(=O)n(C2CC(O)C(CO)O2)cc1S (stereo not given)
T/C (dose: 12.5 mg/kg/injection, schedule: Q01DX009 (ip), vehicle: saline): 99 % of control and 101 % of control and 105 % of control | T/C [1]: 100 % of control (2×) and 111 % of control | T/C [2]: 101 % of control and 111 % of control and 118 % of control

O=C1CSC(c2ccc(Cl)cc2)N1c1ccc(N2C(=O)CSC2c2ccc(Cl)cc2)cc1 (stereo not given)
T/C [3]: 94 % of control | T/C [4]: 91 % of control | T/C (dose: 400.0 mg/kg/injection, schedule: Q01DX001 (ip), vehicle: saline with Tween-80): 91 % of control

CCOC(=O)NN(C(=O)OCC)C(=C(C1CCCCC1)N1CCOCC1)N(NC(=O)OCC)C(=O)OCC
T/C (dose: 50.0 mg/kg/injection, schedule: Q01DX009 (ip), vehicle: Klucel (hydroxypropylcellulose) (HPC)): 95 % of control | T/C (dose: 100.0 mg/kg/injection, schedule: Q01DX009 (ip), vehicle: Klucel (hydroxypropylcellulose) (HPC)): 98 % of control | T/C (dose: 200.0 mg/kg/injection, schedule: Q01DX009 (ip), vehicle: Klucel (hydroxypropylcellulose) (HPC)): 94 % of control

CCOC(=O)c1c[nH]c2c(=O)c3cc(C)ccc3sc2c1=O
T/C (dose: 50.0 mg/kg/injection, schedule: Q01DX001 (ip), vehicle: saline with Tween-80): 95 % of control | T/C [3]: 93 % of control | T/C [4]: 87 % of control

C=C(CN(C)C)C(=O)c1ccccc1C
T/C (dose: 0.78 mg/kg/injection, schedule: Q01DX005 (ip), vehicle: saline): 102 % of control | T/C (dose: 1.56 mg/kg/injection, schedule: Q01DX005 (ip), vehicle: saline): 98 % of control | T/C (dose: 3.12 mg/kg/injection, schedule: Q01DX005 (ip), vehicle: saline): 94 % of control | T/C (dose: 6.25 mg/kg/injection, schedule: Q01DX005 (ip), vehicle: suspension in saline): 108 % of control

CC(=O)Nc1[c-]cccc1.CC(=O)Nc1[c-]cccc1.CC(=O)O.CC(=O)O.[Pd].[Pd]
T/C (dose: 6.25 mg/kg/injection, schedule: Q01DX005 (ip), vehicle: saline with Tween-80): 94 % of control | T/C (dose: 12.5 mg/kg/injection, schedule: Q01DX005 (ip), vehicle: saline with Tween-80): 95 % of control and 98 % of control | T/C [5]: 119 % of control and 98 % of control | T/C [6]: 100 % of control and 110 % of control

CC1OC1C(=O)C1(O)C(C)C(O)C23OC2(C(O)c2c(O)cccc2C3=O)C1O (stereo not given)
T/C (dose: 1.0 mg/kg/injection, schedule: Q01DX009 (ip), vehicle: Klucel (hydroxypropylcellulose) (HPC)): 104 % of control and 118 % of control | T/C (dose: 2.0 mg/kg/injection, schedule: Q01DX009 (ip), vehicle: Klucel (hydroxypropylcellulose) (HPC)): 154 % of control | T/C (dose: 4.0 mg/kg/injection, schedule: Q01DX009 (ip), vehicle: Klucel (hydroxypropylcellulose) (HPC)): 121 % of control

CC(=O)Nc1cc2nc3ccc(C)cc3oc-2c(C)c1=O
T/C (dose: 0.78 mg/kg/injection, schedule: Q01DX009 (ip), vehicle: other): 113 % of control | T/C (dose: 1.56 mg/kg/injection, schedule: Q01DX009 (ip), vehicle: other): 98 % of control | T/C (dose: 3.13 mg/kg/injection, schedule: Q01DX009 (ip), vehicle: other): 98 % of control | T/C (dose: 6.25 mg/kg/injection, schedule: Q01DX009 (ip), vehicle: other): 103 % of control

COC(=O)C(Cc1c[nH]c2ccccc12)NC(=O)C(Cc1cnc[nH]1)N(C(=O)OCc1ccccc1)C(=O)OCc1ccccc1 (stereo not given)
T/C [6]: 100 % of control | T/C [7]: 89 % of control | T/C [8]: 98 % of control

COc1ccc(-c2cn(-c3ccccc3)c3ncnc(N)c23)cc1
T/C [9]: 102 % of control | T/C [10]: 103 % of control | T/C [11]: 103 % of control

CSc1nc2c(nnn2C2OCC(O)C(O)C2O)c(=O)n1C (stereo not given)
T/C [9]: 102 % of control | T/C [10]: 99 % of control | T/C [11]: 96 % of control

CC1CC(C)(C)OB(OCCc2ccc(Cl)cc2Cl)O1 (stereo not given)
T/C [2]: 99 % of control | T/C (dose: 100.0 mg/kg/injection, schedule: Q01DX009 (ip), vehicle: saline): 102 % of control | T/C (dose: 200.0 mg/kg/injection, schedule: Q01DX009 (ip), vehicle: saline): 100 % of control

COC(=O)N1C(C#N)=CCc2ccccc21
T/C [9]: 94 % of control | T/C [10]: 108 % of control | T/C [11]: 97 % of control

N#Cc1c2c(n3c1[nH]c(=O)c1ccccc13)CCCC2
T/C [9]: 105 % of control | T/C [10]: 100 % of control | T/C [11]: 99 % of control

Cc1ccc(OP(=O)(Oc2ccc(C)cc2)Oc2ccc(C)cc2)cc1.Cc1ccc(OP(=O)(Oc2ccc(C)cc2)Oc2ccc(C)cc2)cc1.Cc1ccc(OP(=O)(Oc2ccc(C)cc2)Oc2ccc(C)cc2)cc1.Cc1ccc(OP(=O)(Oc2ccc(C)cc2)Oc2ccc(C)cc2)cc1.[O-][Cl+3]([O-])([O-])O.[Zn+2]
T/C (dose: 100.0 mg/kg/injection, schedule: Q04DX003 (ip), vehicle: Klucel (hydroxypropylcellulose) (HPC)): 98 % of control | T/C (dose: 200.0 mg/kg/injection, schedule: Q04DX003 (ip), vehicle: Klucel (hydroxypropylcellulose) (HPC)): 102 % of control

Cc1nc2c(N)n[nH]c(=O)n2n1
T/C [9]: 103 % of control | T/C [10]: 100 % of control | T/C [11]: 99 % of control

CC(C)C(NC(=O)OC(C)(C)C)C(=O)O (stereo not given)
T/C (dose: 50.0 mg/kg/injection, schedule: Q01DX005 (ip), vehicle: Klucel (hydroxypropylcellulose) (HPC)): 102 % of control | T/C (dose: 100.0 mg/kg/injection, schedule: Q01DX005 (ip), vehicle: Klucel (hydroxypropylcellulose) (HPC)): 104 % of control | T/C (dose: 200.0 mg/kg/injection, schedule: Q01DX005 (ip), vehicle: Klucel (hydroxypropylcellulose) (HPC)): 93 % of control

O=C(NCCCCOc1ccccc1[N+](=O)[O-])OCc1ccccc1
T/C [6]: 101 % of control | T/C [7]: 97 % of control | T/C [8]: 101 % of control

[Zn].c1c[nH]cn1.c1c[nH]cn1.c1c[nH]cn1.c1c[nH]cn1
T/C [5]: 107 % of control and 109 % of control | T/C [6]: 106 % of control and 110 % of control and 115 % of control

O=C(CO)CC(=O)CCC(=O)Nc1cccc([N+](=O)[O-])c1
T/C [9]: 105 % of control | T/C [10]: 111 % of control | T/C [11]: 105 % of control
